As a reminder, the Papp A→B is the apparent permeability from the apical to the basolateral side of a cell layer. Low readings indicate slow passage, high ones fast passage. The Papp is the rate of passage across a membrane or cell layer, normalised by area and donor concentration.

From ChEMBL document CHEMBL1140090, “Discovery of orally bioavailable 1,3,4-trisubstituted 2-oxopiperazine-based melanocortin-4 receptor agonists as potential antiobesity agents” (J Med Chem, 2008) come the findings set out here.

A short description of data set [1]: in vitro. To be noted: human, Caco-2.
Data set [2] is described as follows: in vitro. To be noted: human, Caco-2. The source holds these as a separate data set.

Turning to `CNC(=O)[C@H](Cc1ccc2ccccc2c1)N1CCN(C(=O)[C@H](N)Cc2ccc(F)cc2)[C@@H](CCNC(=N)N)C1=O`, the Papp A→B in data set [1] is 0.333 ×10⁻⁶ cm/s. The molecule also showed a Papp in data set [2] of 0.333 ×10⁻⁶ cm/s.
`C=CC[C@H]1C(=O)N([C@@H](Cc2ccc3ccccc3c2)C(=O)NC)CCN1C(=O)[C@H](N)Cc1ccc(F)cc1` had a Papp A→B in data set [1] of 6.5 ×10⁻⁶ cm/s. The molecule further had a Papp in data set [2] of 15.2 ×10⁻⁶ cm/s.
